# Test results taken from the supplement of paper PMC10307832.
# What was measured:
# Test in all cases: relative viability (nuclei count vs DMSO), 5 days (fraction); higher = more cells survive
# Everolimus + Vorinostat = compound: CO[C@H]1C[C@@H]2CC[C@@H](C)[C@@](O)(O2)C(=O)C(=O)N2CCCC[C@H]2C(=O)O[C@H]([C@H](C)C[C@@H]2CC[C@@H](OCCO)[C@H](OC)C2)CC(=O)[C@H](C)/C=C(\C)[C@@H](O)[C@@H](OC)C(=O)[C@H](C)C[C@H](C)/C=C/C=C/C=C/1C [Everolimus] + O=C(CCCCCCC(=O)Nc1ccccc1)NO [Vorinostat] (partner 1 µM)
# How it was run: (§1)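 Values are medians from duplicate plates. Each reflects relative viability, defined as the nuclei count of treated wells over that of vehicle wells. Lung cancer cell lines in 1536-well plates were pin-tool dosed one day after seeding with one drug alone or with a fixed anchor-drug dose plus five library-drug doses (not always all listed) in √10 steps, then fixed, stained and imaged at 4× after 5 days.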
# Everolimus + Crizotinib = compound: CO[C@H]1C[C@@H]2CC[C@@H](C)[C@@](O)(O2)C(=O)C(=O)N2CCCC[C@H]2C(=O)O[C@H]([C@H](C)C[C@@H]2CC[C@@H](OCCO)[C@H](OC)C2)CC(=O)[C@H](C)/C=C(\C)[C@@H](O)[C@@H](OC)C(=O)[C@H](C)C[C@H](C)/C=C/C=C/C=C/1C [Everolimus] + C[C@@H](Oc1cc(-c2cnn(C3CCNCC3)c2)cnc1N)c1c(Cl)ccc(F)c1Cl [Crizotinib] (partner 1 µM)
# How it was run: as §1
# Everolimus + Navitoclax = compound: CO[C@H]1C[C@@H]2CC[C@@H](C)[C@@](O)(O2)C(=O)C(=O)N2CCCC[C@H]2C(=O)O[C@H]([C@H](C)C[C@@H]2CC[C@@H](OCCO)[C@H](OC)C2)CC(=O)[C@H](C)/C=C(\C)[C@@H](O)[C@@H](OC)C(=O)[C@H](C)C[C@H](C)/C=C/C=C/C=C/1C [Everolimus] + CC1(C)CCC(c2ccc(Cl)cc2)=C(CN2CCN(c3ccc(C(=O)NS(=O)(=O)c4ccc(N[C@H](CCN5CCOCC5)CSc5ccccc5)c(S(=O)(=O)C(F)(F)F)c4)cc3)CC2)C1 [Navitoclax] (partner 0.5 µM)
# How it was run: as §1
# Everolimus + Dasatinib = compound: CO[C@H]1C[C@@H]2CC[C@@H](C)[C@@](O)(O2)C(=O)C(=O)N2CCCC[C@H]2C(=O)O[C@H]([C@H](C)C[C@@H]2CC[C@@H](OCCO)[C@H](OC)C2)CC(=O)[C@H](C)/C=C(\C)[C@@H](O)[C@@H](OC)C(=O)[C@H](C)C[C@H](C)/C=C/C=C/C=C/1C [Everolimus] + Cc1nc(Nc2ncc(C(=O)Nc3c(C)cccc3Cl)s2)cc(N2CCN(CCO)CC2)n1 [Dasatinib] (partner 0.075 µM)
# How it was run: as §1
Cell Line,relative viability (Everolimus + Vorinostat; first compound 0.01 µM),relative viability (Everolimus + Vorinostat; first compound 0.03162 µM),relative viability (Everolimus + Vorinostat; first compound 0.1 µM),relative viability (Everolimus + Vorinostat; first compound 0.3162 µM),relative viability (Everolimus + Vorinostat; first compound 1 µM),relative viability (Everolimus + Crizotinib; first compound 0.01 µM),relative viability (Everolimus + Crizotinib; first compound 0.03162 µM),relative viability (Everolimus + Crizotinib; first compound 0.1 µM),relative viability (Everolimus + Crizotinib; first compound 0.3162 µM),relative viability (Everolimus + Crizotinib; first compound 1 µM),relative viability (Everolimus + Navitoclax; first compound 0.01 µM),relative viability (Everolimus + Navitoclax; first compound 0.03162 µM),relative viability (Everolimus + Navitoclax; first compound 0.1 µM),relative viability (Everolimus + Navitoclax; first compound 0.3162 µM),relative viability (Everolimus + Navitoclax; first compound 1 µM),relative viability (Everolimus + Dasatinib; first compound 0.01 µM),relative viability (Everolimus + Dasatinib; first compound 0.03162 µM),relative viability (Everolimus + Dasatinib; first compound 0.1 µM),relative viability (Everolimus + Dasatinib; first compound 0.3162 µM),relative viability (Everolimus + Dasatinib; first compound 1 µM)
UMC-11,0.213,0.196,0.19,0.187,0.213,0.271,0.244,0.239,0.249,0.286,0.171,0.164,0.166,0.207,0.179,0.307,0.293,0.326,0.319,0.302
A-427,0.781,0.817,0.751,0.829,0.843,0.776,0.768,0.745,0.704,0.675,0.622,0.404,0.409,0.388,0.461,0.527,0.526,0.397,0.462,0.489
LCLC-97TM1,0.62,0.616,0.688,0.659,0.379,0.406,0.28,0.485,0.291,0.216,0.417,0.388,0.255,0.217,0.239,0.929,0.851,0.932,0.836,0.917
HCC-15,0.937,0.862,0.767,0.753,0.77,0.931,0.887,0.791,0.829,0.75,0.691,0.629,0.512,0.637,0.512,0.667,0.546,0.417,0.561,0.489
NCI-H647,0.309,0.165,0.132,0.189,0.24,0.582,0.771,0.596,0.582,0.709,0.782,0.659,0.609,0.646,0.748,0.15,0.198,0.184,0.145,0.157
SW 1573,0.373,0.452,0.465,0.458,0.478,0.593,0.521,0.53,0.383,0.427,0.577,0.466,0.464,0.533,0.395,0.259,0.353,0.207,0.244,0.215
NCI-H1651,0.424,0.418,0.36,0.449,0.405,0.846,0.786,0.735,0.708,0.566,0.555,0.581,0.576,0.557,0.399,0.297,0.335,0.259,0.24,0.405
NCI-H2023,0.496,0.441,0.341,0.372,0.379,0.433,0.388,0.368,0.395,0.312,0.763,0.471,0.529,0.536,0.348,0.343,0.301,0.243,0.239,0.222
COR-L 105,0.58,0.465,0.535,0.572,0.59,0.549,0.642,0.469,0.544,0.49,0.574,0.636,0.616,0.652,0.57,0.25,0.262,0.211,0.253,0.233
NCI-H1734,0.613,0.606,0.505,0.422,0.563,0.501,0.48,0.401,0.378,0.449,0.455,0.519,0.447,0.441,0.608,0.276,0.301,0.265,0.266,0.316
NCI-H3122,0.678,0.598,0.607,0.369,0.669,0.219,0.246,0.238,0.194,0.192,1.05,0.916,0.82,0.89,0.617,0.584,0.0535,0.0826,0.0717,0.112
CAL-12T,0.267,0.29,0.237,0.321,0.318,0.432,0.569,0.233,0.401,0.265,0.438,0.452,0.35,0.423,0.498,0.274,0.261,0.194,0.289,0.189
HCC-78,0.401,0.372,0.416,0.367,0.307,0.315,0.261,0.265,0.259,0.298,0.853,0.421,0.424,0.589,0.455,0.328,0.291,0.248,0.263,0.343
NCI-H2085,0.636,0.582,0.497,0.576,0.541,0.775,0.719,0.64,0.655,0.496,0.73,0.811,0.66,0.83,0.705,0.237,0.232,0.254,0.215,0.234
